Test results as given in PubChem BioAssay (NCI).
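GI50 marks 50% less growth. At the TGI there is no net growth.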

Experiments:
Test in all cases: NCI tumour cell line growth inhibition, 384-well format
A549 NSCLC = system: A549 NSCLC
HOP-62 NSCLC = system: HOP-62 NSCLC
SK-MEL-2 melanoma = system: SK-MEL-2 melanoma
SF-268 CNS = system: SF-268 CNS
EKVX NSCLC = system: EKVX NSCLC
MDA-MB-231 breast = system: MDA-MB-231 breast
SF-295 CNS = system: SF-295 CNS
SR leukemia = system: SR leukemia
NCI-H460 NSCLC = system: NCI-H460 NSCLC
U251 glioblastoma = system: U251 glioblastoma
SNB-75 CNS = system: SNB-75 CNS
OVCAR-4 ovarian = system: OVCAR-4 ovarian
PC-3 prostate = system: PC-3 prostate
A498 renal = system: A498 renal
HCT-15 colon = system: HCT-15 colon
MCF7 breast = system: MCF7 breast
NCI-H226 lung = system: NCI-H226 lung
OVCAR-5 ovarian = system: OVCAR-5 ovarian
UACC-62 melanoma = system: UACC-62 melanoma
NCI-H322M lung = system: NCI-H322M lung
M14 melanoma = system: M14 melanoma
IGROV1 ovarian = system: IGROV1 ovarian
HS 578T breast = system: HS 578T breast
786-0 renal = system: 786-0 renal
CAKI-1 renal = system: CAKI-1 renal
T-47D breast = system: T-47D breast
SK-MEL-28 melanoma = system: SK-MEL-28 melanoma
NCI-H522 lung = system: NCI-H522 lung
SF-539 CNS = system: SF-539 CNS
LOX IMVI melanoma = system: LOX IMVI melanoma
MDA-MB-435 melanoma = system: MDA-MB-435 melanoma
HCT-116 colon = system: HCT-116 colon
KM12 colon = system: KM12 colon
TK-10 renal = system: TK-10 renal
SW-620 colon = system: SW-620 colon
RPMI-8226 leukemia = system: RPMI-8226 leukemia
K-562 leukemia = system: K-562 leukemia
RXF 393 renal = system: RXF 393 renal
HOP-92 NSCLC = system: HOP-92 NSCLC
OVCAR-8 ovarian = system: OVCAR-8 ovarian
MDA-MB-468 breast = system: MDA-MB-468 breast
CCRF-CEM leukemia = system: CCRF-CEM leukemia
SN12C renal = system: SN12C renal
BT-549 breast = system: BT-549 breast
SNB-19 CNS = system: SNB-19 CNS
SK-MEL-5 melanoma = system: SK-MEL-5 melanoma
MALME-3M melanoma = system: MALME-3M melanoma

Compound: CNC(=O)c1ccc(-c2cnc3ncc(Cc4ccc5ncccc5c4)n3n2)cc1F
- GI50 (A549 NSCLC): > 100 µM
- TGI (A549 NSCLC): > 100 µM
- GI50 (HOP-62 NSCLC): > 100 µM
- TGI (HOP-62 NSCLC): > 100 µM
- GI50 (SK-MEL-2 melanoma): > 100 µM
- TGI (SK-MEL-2 melanoma): > 100 µM
- GI50 (SF-268 CNS): > 76.9 µM
- TGI (SF-268 CNS): > 100 µM
- GI50 (EKVX NSCLC): > 100 µM
- TGI (EKVX NSCLC): > 100 µM
- GI50 (MDA-MB-231 breast): > 100 µM
- TGI (MDA-MB-231 breast): > 100 µM
- GI50 (SF-295 CNS): > 72.6 µM
- TGI (SF-295 CNS): > 100 µM
- GI50 (SR leukemia): > 50.9 µM
- TGI (SR leukemia): > 100 µM
- GI50 (NCI-H460 NSCLC): > 100 µM
- TGI (NCI-H460 NSCLC): > 100 µM
- GI50 (U251 glioblastoma): > 100 µM
- TGI (U251 glioblastoma): > 100 µM
- GI50 (SNB-75 CNS): > 61.6 µM
- TGI (SNB-75 CNS): > 94.5 µM
- GI50 (OVCAR-4 ovarian): > 100 µM
- TGI (OVCAR-4 ovarian): > 100 µM
- GI50 (PC-3 prostate): > 100 µM
- TGI (PC-3 prostate): > 100 µM
- GI50 (A498 renal): > 100 µM
- TGI (A498 renal): > 100 µM
- GI50 (HCT-15 colon): > 100 µM
- TGI (HCT-15 colon): > 100 µM
- GI50 (MCF7 breast): > 100 µM
- TGI (MCF7 breast): > 100 µM
- GI50 (NCI-H226 lung): > 100 µM
- TGI (NCI-H226 lung): > 100 µM
- GI50 (OVCAR-5 ovarian): > 100 µM
- TGI (OVCAR-5 ovarian): > 100 µM
- GI50 (UACC-62 melanoma): > 100 µM
- TGI (UACC-62 melanoma): > 100 µM
- GI50 (NCI-H322M lung): > 100 µM
- TGI (NCI-H322M lung): > 100 µM
- GI50 (M14 melanoma): > 100 µM
- TGI (M14 melanoma): > 100 µM
- GI50 (IGROV1 ovarian): > 100 µM
- TGI (IGROV1 ovarian): > 100 µM
- GI50 (HS 578T breast): > 100 µM
- TGI (HS 578T breast): > 100 µM
- GI50 ([…]-0 renal): > 87.7 µM
- TGI (786-0 renal): > 100 µM
- GI50 (CAKI-1 renal): > 100 µM
- TGI (CAKI-1 renal): > 100 µM
- GI50 (T-47D breast): > 100 µM
- TGI (T-47D breast): > 100 µM
- GI50 (SK-MEL-28 melanoma): > 100 µM
- TGI (SK-MEL-28 melanoma): > 100 µM
- GI50 (NCI-H522 lung): > 100 µM
- TGI (NCI-H522 lung): > 100 µM
- GI50 (SF-539 CNS): > 100 µM
- TGI (SF-539 CNS): > 100 µM
- GI50 (LOX IMVI melanoma): > 100 µM
- TGI (LOX IMVI melanoma): > 100 µM
- GI50 (MDA-MB-435 melanoma): > 100 µM
- TGI (MDA-MB-435 melanoma): > 100 µM
- GI50 (HCT-116 colon): > 100 µM
- TGI (HCT-116 colon): > 100 µM
- GI50 (KM12 colon): > 77.3 µM
- TGI (KM12 colon): > 100 µM
- GI50 (TK-10 renal): > 100 µM
- TGI (TK-10 renal): > 100 µM
- GI50 (SW-620 colon): > 100 µM
- TGI (SW-620 colon): > 100 µM
- GI50 (RPMI-8226 leukemia): > 100 µM
- TGI (RPMI-8226 leukemia): > 100 µM
- GI50 (K-562 leukemia): > 100 µM
- TGI (K-562 leukemia): > 100 µM
- GI50 (RXF 393 renal): > 43.1 µM
- TGI (RXF 393 renal): > 100 µM
- GI50 (HOP-92 NSCLC): > 75 µM
- TGI (HOP-92 NSCLC): > 100 µM
- GI50 (OVCAR-8 ovarian): > 100 µM
- TGI (OVCAR-8 ovarian): > 100 µM
- GI50 (MDA-MB-468 breast): > 100 µM
- TGI (MDA-MB-468 breast): > 100 µM
- GI50 (CCRF-CEM leukemia): > 100 µM
- TGI (CCRF-CEM leukemia): > 100 µM
- GI50 (SN12C renal): > 77.6 µM
- TGI (SN12C renal): > 100 µM
- GI50 (BT-549 breast): > 100 µM
- TGI (BT-549 breast): > 100 µM
- GI50 (SNB-19 CNS): > 100 µM
- TGI (SNB-19 CNS): > 100 µM
- GI50 (SK-MEL-5 melanoma): > 100 µM
- TGI (SK-MEL-5 melanoma): > 100 µM
- GI50 (MALME-3M melanoma): > 100 µM
- TGI (MALME-3M melanoma): > 100 µM
